Measurements: US12643887B2, “Heterocyclic derivatives with cardiomyocyte proliferation activity for treatment of heart diseases” (Tongji University, priority 2019, dated 2026)

Tested on: Neonatal Rat Ventricular Myocytes (NRVMs)
Assay: Myocyte proliferation assay (EdU assay) in neonatal rat ventricular myocytes
Type: cell-based
Conditions: growth relative to blank myocyte growth without compound added; for Avg 1 uM (average myocyte proliferation): compound 1 uM; for Avg 3 uM (average myocyte proliferation): compound 3 uM; for Avg 10 uM (average myocyte proliferation): compound 10 uM
Protocol: 1. Isolation of and Culture Neonatal Rat Ventricular Myocytes (NRVMs)
Ventricles from neonatal rats were separated from the atria, cut into small pieces (about 2×2 mm^2) and then dissociated in Ca2+-free HBSS containing 0.125 mg ml-1 trypsin (Gibco), 10 μg ml-1 DNase II (Sigma) and 0.1 mg ml-1 collagenase type IV (Sigma). The digestion was carried out under constant stirring at 37° C. for 5 min. The supernatant was collected with FBS (Gibco) after each digestion period. After digestion, the collected supernatant was centrifuged at 1000 g for 10 min at room temperature, and then cell pellets were resuspended in DMEM (Gibco) supplemented with 10% FBS and with 100 uM 5-bromo-2′-deoxyuridine (Sigma). The resuspended cells were passed through a cell strainer ([…], BD Falcon) and seeded onto 100-mm plastic dishes for 2 h at 37° C. in a 5% CO2 to remove fibroblasts, the supernatant was then collected and plated onto 1% gelatin (Sigma)-coated dishes. 24 h after the seeding, the medium was changed to DMEM (Gibco) containing 2% FBS (Gibco), 1% insulin-transferrin-selenium (ITS; Gibco), 1% Penicillin-Streptomycin (Gibco). After 24 hours of low serum culture, remove the medium with DMEM (Gibco) containing 6% FBS (Gibco), 1% insulin-transferrin-selenium (ITS; Gibco), 1% Penicillin-Streptomycin (Gibco), different concentrations of compounds (the compounds were pre-diluted in the medium and the drug concentration was 10 uM, 3 uM, 1 uM, fully mixed). After 36 h add Edu substrate (Invitrogen) according to the manufacturer's guidelines, and then after 12 h cell can be used.
• 2.1. Immobilization: Remove the medium and fix the cells with […] in 200 ul (whichever is covered) for 15 min and wash the cells twice with 500 ul of PBS for 5 min each time. • 2.2. Broken membrane: Add 200 ul of 0.3% Triton-X 100 (diluted in PBS) to each well, incubate for 10-15 min at room temperature (the time should not be too long), and wash the cells twice with 500 ul of PBS for 5 min each time. • 2.3. Blocking: Add 200 ul of 10% normal goat serum (diluted with 0.1% PBST) to each well, incubate for 1 h at room temperature, and wash twice with 500 ul of 0.1% PBST for 5 min each time. • 2.4. Primary antibody: dilute the primary antibody (abcam, ab8295) to blocking solution at a ratio of 1:200, add 100 ul per well, incubate for 1 h at room temperature (may be slightly longer than 2-3 h), wash the cells twice with 500 ul 0.1% PBST for 5 min each time. • 2.5. Secondary antibody: Dilute the fluorescently labeled secondary antibody (abcam, ab150117) into blocking solution at a ratio of 1:200, add 100 ul per well, incubate for 1 h at room temperature (the time should not be too long), wash the cells twice with 0.1% PBST for 5 min each time, pay attention to the whole process. Protected from light. • 2.6. Edu staining (Invitrogen C10338) • 2.6.1 Prepare Click-iT® reaction cocktail according to Table 3. It was important to add the ingredients in the order listed in the table; otherwise, the reaction would not proceed optimally. Use the Click-iT® reaction cocktail within 15 minutes of preparation.
• 2.6.2 Add 0.1 mL of Click-iT® reaction cocktail to each well containing a coverslip. Rock the plate briefly to ensure that the reaction cocktail is distributed evenly over the coverslip. • 2.6.3 Incubate the plate for 30 minutes at room temperature, protected from light. • 2.6.4 Remove the reaction cocktail, then wash the cells twice with 0.1% PBST for 5 min each time. • 2.7. DAPI staining: DAPI stain was diluted to PBS at a ratio of 1:1000, 100 ul per well, incubated for 30 min at room temperature, and the cells were washed twice with PBS for 5 min each. 3. Data Analysis
We used Molecular Devices' Image Xpress Micro Confocal for high-throughput photo and data analysis.

SMILES	Avg 1 uM (average myocyte proliferation)	Avg 3 uM (average myocyte proliferation)	Avg 10 uM (average myocyte proliferation)
O=C1/C(=C/c2ccc3c(c2)OCO3)N=C(N(Cc2ccccc2)c2ccccc2)N1Cc1ccccc1 [Example 2, (Z)-5-(benzo[d][1,3]dioxol-5-ylmethylene)-3-benzyl-2-(benzyl(phenyl)amino)-3,5-dihydro-4H-imidazol-4-one]	* (<10% growth relative to blank myocyte growth without compound added.)	* (<10% growth relative to blank myocyte growth without compound added.)	*** (>50%)
CN1C(=O)/C(=C/c2ccc3c(c2)OCO3)N=C1N(C)c1ccccc1 [Example 3, (Z)-5-(benzo[d][1,3]dioxol-5-ylmethylene)-3-methyl-2-(methyl(phenyl)amino)-3,5-dihydro-4H-imidazol-4-one]	* (<10% growth relative to blank myocyte growth without compound added.)	* (<10% growth relative to blank myocyte growth without compound added.)	* (<10% growth relative to blank myocyte growth without compound added.)
CN(C1=N/C(=C\c2ccc3c(c2)OCCO3)C(=O)N1)c1ccccc1 [Example 8, (Z)-5-((2,3-dihydrobenzo[b][1,4]dioxin-6-yl)methylene)-2-(methyl(phenyl)amino)-3,5-dihydro-4H-imidazol-4-one]	** (10%-50%)	* (<10% growth relative to blank myocyte growth without compound added.)	** (10%-50%)
O=C1NC(Nc2ccccc2)=N/C1=C\c1ccc(=O)[nH]c1 [Example 9, (Z)-5-((5-oxo-2-(phenylamino)-1,5-dihydro-4H-imidazol-4-ylidene)methyl)pyridin-2(1H)-one]	* (<10% growth relative to blank myocyte growth without compound added.)	** (10%-50%)	** (10%-50%)
O=C1NC(N(CC2CC2)c2ccccc2)=N/C1=C\c1ccc2c(c1)OCO2 [Example 10, (Z)-5-(benzo[d][1,3]dioxol-5-ylmethylene)-2-((cyclopropylmethyl)(phenyl)amino)-3,5-dihydro-4H-imidazol-4-one]	** (10%-50%)	* (<10% growth relative to blank myocyte growth without compound added.)	*** (>50%)
COc1ccc(N(C)C2=N/C(=C\c3ccc4c(c3)OCO4)C(=O)N2)cc1 [Example 12, (Z)-5-(benzo[d][1,3]dioxol-5-ylmethylene)-2-((4-methoxyphenyl)(methyl)amino)-3,5-dihydro-4H-imidazol-4-one]	* (<10% growth relative to blank myocyte growth without compound added.)	** (10%-50%)	
O=C1NC(Nc2ccccc2)=N/C1=C\c1ccc2scnc2c1 [Example 14, (Z)-5-(benzo[d]thiazol-5-ylmethylene)-2-(phenylamino)-3,5-dihydro-4H-imidazol-4-one]	* (<10% growth relative to blank myocyte growth without compound added.)	** (10%-50%)	
O=C1NC(Nc2ccccc2)=N/C1=C\c1cncs1 [Example 15, (Z)-2-(phenylamino)-5-(thiazol-5-ylmethylene)-3,5-dihydro-4H-imidazol-4-one]	* (<10% growth relative to blank myocyte growth without compound added.)	** (10%-50%)	
O=C1NC(Nc2ccccc2)=N/C1=C\c1ccc2nccnc2c1 [Example 16, (Z)-2-(phenylamino)-5-(quinoxalin-6-ylmethylene)-3,5-dihydro-4H-imidazol-4-one]	* (<10% growth relative to blank myocyte growth without compound added.)	* (<10% growth relative to blank myocyte growth without compound added.)	
CN(C1=N/C(=C\c2ccc3c(c2)OC(F)(F)O3)C(=O)N1)c1ccccc1 [Example 17, (Z)-5-((2,2-difluorobenzo[d][1,3]dioxol-5-yl)methylene)-2-(methyl(phenyl)amino)-3,5-dihydro-4H-imidazol-4-one]	* (<10% growth relative to blank myocyte growth without compound added.)	* (<10% growth relative to blank myocyte growth without compound added.)	* (<10% growth relative to blank myocyte growth without compound added.)
CN(C1=N/C(=C\c2ccc3c(c2)OCO3)C(=O)N1)c1cccnc1 [Example 18, (Z)-5-(benzo[d][1,3]dioxol-5-ylmethylene)-2-(methyl(pyridin-3-yl)amino)-3,5-dihydro-4H-imidazol-4-one]	* (<10% growth relative to blank myocyte growth without compound added.)	* (<10% growth relative to blank myocyte growth without compound added.)	** (10%-50%)
CN(CC1CC1)C1=N/C(=C\c2ccc3c(c2)OCCO3)C(=O)N1 [Example 19, (Z)-2-((cyclopropylmethyl)(methyl)amino)-5-((2,3-dihydrobenzo[b][1,4]dioxin-6-yl)methylene)-3,5-di hydro-4H-imidazol-4-one]	* (<10% growth relative to blank myocyte growth without compound added.)	* (<10% growth relative to blank myocyte growth without compound added.)	* (<10% growth relative to blank myocyte growth without compound added.)
CN(CCN1CCOCC1)C1=N/C(=C\c2ccc3c(c2)OCO3)C(=O)N1 [Example 20, (Z)-5-(benzo[d][1,3]dioxol-5-ylmethylene)-2-(methyl(2-morpholinoethyl)amino)-3,5-dihydro-4H-imidazol-4-one]	* (<10% growth relative to blank myocyte growth without compound added.)	* (<10% growth relative to blank myocyte growth without compound added.)	** (10%-50%)
CN(C1=N/C(=C\c2ccc3ncsc3c2)C(=O)N1)c1ccc(Cl)cc1 [Example 24, (Z)-5-(benzo[d]thiazol-6-ylmethylene)-2-((4-chlorophenyl)(methyl)amino)-3,5-dihydro-4H-imidazol-4-one]	* (<10% growth relative to blank myocyte growth without compound added.)	* (<10% growth relative to blank myocyte growth without compound added.)	* (<10% growth relative to blank myocyte growth without compound added.)
COc1ccc(NC2=N/C(=C\c3ccc4ncsc4c3)C(=O)N2)cc1 [Example 25, (Z)-5-(benzo[d]thiazol-6-ylmethylene)-2-((4-methoxyphenyl)amino)-3,5-dihydro-4H-imidazol-4-one]	** (10%-50%)	* (<10% growth relative to blank myocyte growth without compound added.)	* (<10% growth relative to blank myocyte growth without compound added.)
O=C1NC(Nc2ccccc2)=N/C1=C\c1ccc2[nH]cnc2c1 [Example 26, (Z)-5-((1H-benzo[d]imidazol-5-yl)methylene)-2-(phenylamino)-3,5-dihydro-4H-imidazol-4-one]	* (<10% growth relative to blank myocyte growth without compound added.)	* (<10% growth relative to blank myocyte growth without compound added.)	* (<10% growth relative to blank myocyte growth without compound added.)
